Consider two compounds from ChEMBL document CHEMBL1154549, “Three new triterpenoids from Peganum nigellastrum” (J Nat Prod, 2000).

One may read the IC50 as the concentration that gives 50% inhibition.

This test addresses DNA topoisomerase 2-alpha (Homo sapiens, UniProt P11388). The experiment in a line: Inhibition of human topoisomerase 2.

Chain of DNA topoisomerase 2-alpha (P11388 whole entry): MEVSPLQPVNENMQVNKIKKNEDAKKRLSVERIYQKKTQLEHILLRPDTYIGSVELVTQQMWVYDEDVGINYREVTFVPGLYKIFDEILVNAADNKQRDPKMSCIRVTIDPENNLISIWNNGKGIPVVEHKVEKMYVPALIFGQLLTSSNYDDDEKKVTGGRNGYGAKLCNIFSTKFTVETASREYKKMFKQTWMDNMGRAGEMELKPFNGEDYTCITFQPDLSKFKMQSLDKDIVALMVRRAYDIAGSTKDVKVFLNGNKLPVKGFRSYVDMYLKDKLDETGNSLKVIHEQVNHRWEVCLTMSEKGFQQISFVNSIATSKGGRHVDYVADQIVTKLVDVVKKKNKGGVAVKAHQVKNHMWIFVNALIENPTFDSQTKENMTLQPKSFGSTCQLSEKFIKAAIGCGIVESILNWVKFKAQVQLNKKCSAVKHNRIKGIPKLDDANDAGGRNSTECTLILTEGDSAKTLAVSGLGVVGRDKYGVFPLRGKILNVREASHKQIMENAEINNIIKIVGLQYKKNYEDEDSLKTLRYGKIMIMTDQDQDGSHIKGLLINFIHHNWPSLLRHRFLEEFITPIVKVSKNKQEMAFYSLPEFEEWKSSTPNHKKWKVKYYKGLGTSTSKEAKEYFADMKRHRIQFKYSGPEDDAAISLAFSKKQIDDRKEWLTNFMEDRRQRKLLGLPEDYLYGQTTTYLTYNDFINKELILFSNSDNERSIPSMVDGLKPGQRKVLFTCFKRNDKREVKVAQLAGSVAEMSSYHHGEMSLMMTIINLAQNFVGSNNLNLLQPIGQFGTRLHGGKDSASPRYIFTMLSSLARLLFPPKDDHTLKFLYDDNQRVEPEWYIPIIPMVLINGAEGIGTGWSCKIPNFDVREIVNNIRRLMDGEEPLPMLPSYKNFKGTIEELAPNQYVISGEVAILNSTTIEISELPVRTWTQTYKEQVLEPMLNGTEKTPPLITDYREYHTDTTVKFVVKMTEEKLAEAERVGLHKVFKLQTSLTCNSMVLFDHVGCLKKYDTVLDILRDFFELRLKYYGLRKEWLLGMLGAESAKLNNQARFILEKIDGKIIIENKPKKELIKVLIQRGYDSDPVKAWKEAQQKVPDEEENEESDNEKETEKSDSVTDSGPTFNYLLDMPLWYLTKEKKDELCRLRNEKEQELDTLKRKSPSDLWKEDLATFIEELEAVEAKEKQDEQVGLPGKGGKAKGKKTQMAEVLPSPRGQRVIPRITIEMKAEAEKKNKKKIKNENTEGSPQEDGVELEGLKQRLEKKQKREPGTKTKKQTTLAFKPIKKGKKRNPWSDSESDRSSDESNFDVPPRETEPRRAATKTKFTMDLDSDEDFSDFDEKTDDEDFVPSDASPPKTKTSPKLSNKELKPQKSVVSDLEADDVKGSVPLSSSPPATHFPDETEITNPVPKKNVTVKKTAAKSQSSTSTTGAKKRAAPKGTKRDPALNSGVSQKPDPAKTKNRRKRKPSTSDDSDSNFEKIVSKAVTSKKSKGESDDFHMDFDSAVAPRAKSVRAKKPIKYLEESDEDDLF

As to `C=C(C)[C@@H]1CC[C@]2(C(=O)OC)CC[C@]3(CO)[C@H](CC[C@@H]4[C@@]5(C)CC[C@@H](O)C(C)(C)[C@@H]5CC[C@]43C)[C@@H]12`, half-maximal inhibition (IC50) required 8.9 µM.
As to `C[C@H]([C@H](C)N1CC(=O)NC(=O)C1)N1CC(=O)NC(=O)C1` [ICRF-193], the half-inhibitory concentration (IC50) worked out at 13.9 µM.
